Experimental data reported in US20240018123A1, “COMPOUND FOR INHIBITING OR DISINTEGRATING ANDROGEN RECEPTOR, AND PHARMACEUTICAL USE THEREOF” (KOREA RESEARCH INSTITUTE OF CHEMICAL TECHNOLOGY, priority 2020, published 2024).

Test system: VCaP cells
Assay: Cytotoxicity assessment (Cell-titer-glo cell viability), VCaP
Conditions: read-out: VCaP (CC50); VCaP cells, 6 days of treatment, Cell-titer-glo, vs DMSO
Experimental: In order to evaluate the androgen receptor (AR) cytotoxicity of the compounds according to the present invention, the following experiment was conducted. Specifically, 1.5×10^3 (LNCaP) or 4×10^3 (VCaP, 22RV1), respectively, of LNCaP, VCaP, and 22RV1 cells were injected into each well of a 96-well plate. The next day, each well was treated with the compound at a final concentration of 3 nM, 10 nM, 30 nM, 100 nM, 300 nM, 1 μM, 3 μM, and 10 μM. […] After 6 days of treatment, Cell-titer-glo (promega) was treated and reacted for 10 minutes, and cell viability was measured with a multimode plate reader (PerkinElmer, Inc.), and the change was quantified compared to when DMSO was treated.

Structure (SMILES): CC1(C)C(NC(=O)c2ccc(C#CC3CCN(CC4CCN(C(=O)CNc5ccc6nnn(C7CCC(=O)NC7=O)c(=O)c6c5)CC4)CC3)nc2)C(C)(C)C1Oc1ccc(C#N)c(Cl)c1 (stereo not drawn) [Example 132, N-((1r,3r)-3-(3-chloro-4-cyanophenoxy)-2,2,4,4-tetramethylcyclobutyl)-6-((1-((1-((3-(2,6-dioxopiperidin-3-yl)-4-oxo-3,4-dihydrobenzo[d][1,2,3]triazin-6-yl)glycyl)piperidin-4-yl)methyl)piperidin-4-yl)ethynyl)nicotinamide]
- CC50: 15 nM

Structure (SMILES): CC1(C)C(NC(=O)c2ccc(C#CCC3CCN(CC4CCN(C(=O)C5CCN(c6ccc7nnn(C8CCC(=O)NC8=O)c(=O)c7c6)CC5)CC4)CC3)cc2)C(C)(C)C1Oc1ccc(C#N)c(Cl)c1 (stereo not drawn) [Example 116, N-((1r,3r)-3-(3-chloro-4-cyanophenoxy)-2,2,4,4-tetramethylcyclobutyl)-4-(3-(1-((1-(1-(3-(2,6-dioxopiperidin-3-yl)-4-oxo-3,4-dihydrobenzo[d][1,2,3]triazin-6-yl)piperidine-4-carbonyl)piperidin-4-yl)methyl)piperidin-4-yl)prop-1-yn-1-yl)benzamide]
- CC50: 16.1 nM

Structure (SMILES): CC1(C)[C@H](NC(=O)c2ccc(N3CCN(CC4CCN(CCNC(=O)C5CN(c6ccc7nnn(C8CCC(=O)NC8=O)c(=O)c7c6)C5)CC4)CC3)cc2)C(C)(C)[C@H]1Oc1ccc(C#N)c(Cl)c1 (stereo partly drawn) [Example 69, N-(2-(4-((4-(4-(((1r,3r)-3-(3-chloro-4-cyanophenoxy)-2,2,4,4-tetramethylcyclobutyl)carbamoyl)phenyl)piperazin-1-yl)methyl)piperidin-1-yl)ethyl)-1-(3-(2,6-dioxopiperidin-3-yl)-4-oxo-3,4-dihydrobenzo[d][1,2,3]triazin-6-yl)azetidine-3-carboxamide]
- CC50: 345 nM

Structure (SMILES): CC1(C)C(NC(=O)c2ccc(-n3cc(CCOCCOCCNC(=O)CNc4ccc5nnn(C6CCC(=O)NC6=O)c(=O)c5c4)nn3)cc2)C(C)(C)C1Oc1ccc(C#N)c(Cl)c1 (stereo not drawn) [Example 159, N-((1r,3r)-3-(3-chloro-4-cyanophenoxy)-2,2,4,4-tetramethylcyclobutyl)-4-(4-(2-(2-(2-(2-((3-(2,6-dioxopiperidin-3-yl)-4-oxo-3,4-dihydrobenzo[d][1,2,3]triazin-6-yl)amino)acetamido)ethoxy)ethoxy)ethyl)-1H-1,2,3-triazol-1-yl)benzamide]
- CC50: 109 nM

Structure (SMILES): CC1(C)C(NC(=O)c2ccc(N3CCN(Cc4cn(C5CCN(c6ccc7nnn(C8CCC(=O)NC8=O)c(=O)c7c6)CC5)nn4)CC3)cc2)C(C)(C)C1Oc1ccc(C#N)c(Cl)c1 (stereo not drawn) [Example 105, N-((1r,3r)-3-(3-chloro-4-cyanophenoxy)-2,2,4,4-tetramethylcyclobutyl)-4-(4-((1-(1-(3-(2,6-dioxopiperidin-3-yl)-4-oxo-3,4-dihydrobenzo[d][1,2,3]triazin-6-yl)piperidin-4-yl)-1H-1,2,3-triazol-4-yl)methyl)piperazin-1-yl)benzamide]
- CC50: 80.2 nM

Structure (SMILES): CC1(C)C(NC(=O)c2ccc(-n3cc(CCNC(=O)CNc4ccc5nnn(C6CCC(=O)NC6=O)c(=O)c5c4)nn3)cc2)C(C)(C)C1Oc1ccc(C#N)c(Cl)c1 (stereo not drawn) [Example 156, N-((1r,3r)-3-(3-chloro-4-cyanophenoxy)-2,2,4,4-tetramethylcyclobutyl)-4-(4-(2-(2-((3-(2,6-dioxopiperidin-3-yl)-4-oxo-3,4-dihydrobenzo[d][1,2,3]triazin-6-yl)amino)acetamido)ethyl)-1H-1,2,3-triazol-1-yl)benzamide]
- CC50: 936 nM

Structure (SMILES): CC1(C)C(NC(=O)c2ccc(-c3cnn(C4CCN(CC5CCN(C(=O)CNc6ccc7nnn(C8CCC(=O)NC8=O)c(=O)c7c6)CC5)CC4)c3)cc2)C(C)(C)C1Oc1ccc(C#N)c(Cl)c1 (stereo not drawn) [Example 112, N-((1r,3r)-3-(3-chloro-4-cyanophenoxy)-2,2,4,4-tetramethylcyclobutyl)-4-(1-(1-((1-((3-(2,6-dioxopiperidin-3-yl)-4-oxo-3,4-dihydrobenzo[d][1,2,3]triazin-6-yl)glycyl)piperidin-4-yl)methyl)piperidin-4-yl)-1H-pyrazol-4-yl)benzamide]
- CC50: 16 nM

Structure (SMILES): CC1(C)C(NC(=O)c2cnc(N3CCN(CC4CCN(C(=O)COc5ccc6nnn(C7CCC(=O)NC7=O)c(=O)c6c5)CC4)CC3)nc2)C(C)(C)C1Oc1ccc(C#N)c(Cl)c1 (stereo not drawn) [Example 148, N-((1r,3r)-3-(3-chloro-4-cyanophenoxy)-2,2,4,4-tetramethylcyclobutyl)-2-(4-((1-(2-((3-(2,6-dioxopiperidin-3-yl)-4-oxo-3,4-dihydrobenzo[d][1,2,3]triazin-6-yl)oxy)acetyl)piperidin-4-yl)methyl)piperazin-1-yl)pyrimidine-5-carboxamide]
- CC50: ~10 nM

Structure (SMILES): CC1(C)C(NC(=O)c2ccc(-n3cc(CNC(=O)CNc4ccc5nnn(C6CCC(=O)NC6=O)c(=O)c5c4)nn3)cc2)C(C)(C)C1Oc1ccc(C#N)c(Cl)c1 (stereo not drawn) [Example 152, N-((1r,3r)-3-(3-chloro-4-cyanophenoxy)-2,2,4,4-tetramethylcyclobutyl)-4-(4-((2-((3-(2,6-dioxopiperidin-3-yl)-4-oxo-3,4-dihydrobenzo[d][1,2,3]triazin-6-yl)amino)acetamido)methyl)-1H-1,2,3-triazol-1-yl)benzamide]
- CC50: 233 nM

Structure (SMILES): CC1(C)[C@H](NC(=O)c2cnc(N3CCN(CC4CCN(c5ccc6nnn(C7CCC(=O)NC7=O)c(=O)c6c5)CC4)CC3)nc2)C(C)(C)[C@H]1Oc1ccc(C#N)c(Cl)c1 (stereo partly drawn) [Example 100, N-((1r,3r)-3-(3-chloro-4-cyanophenoxy)-2,2,4,4-tetramethylcyclobutyl)-2-(4-((1-(3-(2,6-dioxopiperidin-3-yl)-4-oxo-3,4-dihydrobenzo[d][1,2,3]triazin-6-yl)piperidin-4-yl)methyl)piperazin-1-yl)pyrimidine-5-carboxamide]
- CC50: 2 nM

Structure (SMILES): CC1(C)C(NC(=O)c2ccc(-n3cc(CN4CCN(C(=O)C5CN(c6ccc7nnn(C8CCC(=O)NC8=O)c(=O)c7c6)C5)CC4)nn3)cc2)C(C)(C)C1Oc1ccc(C#N)c(Cl)c1 (stereo not drawn) [Example 122, N-((1r,3r)-3-(3-chloro-4-cyanophenoxy)-2,2,4,4-tetramethylcyclobutyl)-4-(4-((4-(1-(3-(2,6-dioxopiperidin-3-yl)-4-oxo-3,4-dihydrobenzo[d][1,2,3]triazin-6-yl)azetidine-3-carbonyl)piperazin-1-yl)methyl)-1H-1,2,3-triazol-1-yl)benzamide]
- CC50: 18 nM

Structure (SMILES): CC1(C)[C@H](NC(=O)c2ccc(-n3cc(CNc4ccc5nnn(C6CCC(=O)NC6=O)c(=O)c5c4)nn3)cc2)C(C)(C)[C@H]1Oc1ccc(C#N)c(Cl)c1 (stereo partly drawn) [Example 149, N-((1r,3r)-3-(3-chloro-4-cyanophenoxy)-2,2,4,4-tetramethylcyclobutyl)-4-(4-(((3-(2,6-dioxopiperidin-3-yl)-4-oxo-3,4-dihydrobenzo[d][1,2,3]triazin-6-yl)amino)methyl)-1H-1,2,3-triazol-1-yl)benzamide]
- CC50: > 10000 nM

Structure (SMILES): CC1(C)[C@H](NC(=O)c2ccc(CCN3CC4CN(c5ccc6nnn(C7CCC(=O)NC7=O)c(=O)c6c5)CC4C3)cc2)C(C)(C)[C@H]1Oc1ccc(C#N)c(Cl)c1 (stereo partly drawn) [Example 92, N-((1r,3r)-3-(3-chloro-4-cyanophenoxy)-2,2,4,4-tetramethylcyclobutyl)-4-(2-(5-(3-(2,6-dioxopiperidin-3-yl)-4-oxo-3,4-dihydrobenzo[d][1,2,3]triazin-6-yl)hexahydropyrrolo[3,4-c]pyrrol-2(1H)-yl)ethyl)benzamide]
- CC50: > 10000 nM

Structure (SMILES): CC1(C)C(NC(=O)c2cnc(N3CCN(CC4CCN(C(=O)CNc5ccc6nnn(C7CCC(=O)NC7=O)c(=O)c6c5)CC4)CC3)nc2)C(C)(C)C1Oc1ccc(C#N)c(Cl)c1 (stereo not drawn) [Example 147, N-((1r,3r)-3-(3-chloro-4-cyanophenoxy)-2,2,4,4-tetramethylcyclobutyl)-2-(4-((1-((3-(2,6-dioxopiperidin-3-yl)-4-oxo-3,4-dihydrobenzo[d][1,2,3]triazin-6-yl)glycyl)piperidin-4-yl)methyl)piperazin-1-yl)pyrimidine-5-carboxamide]
- CC50: ~10 nM

Structure (SMILES): CC1(C)C(NC(=O)c2ccc(-c3cnn(C4CCN(CC5CCN(C(=O)C6CCN(c7ccc8nnn(C9CCC(=O)NC9=O)c(=O)c8c7)CC6)CC5)CC4)c3)nc2)C(C)(C)C1Oc1ccc(C#N)c(Cl)c1 (stereo not drawn) [Example 124, N-((1r,3r)-3-(3-chloro-4-cyanophenoxy)-2,2,4,4-tetramethylcyclobutyl)-6-(1-(1-((1-(1-(3-(2,6-dioxopiperidin-3-yl)-4-oxo-3,4-dihydrobenzo[d][1,2,3]triazin-6-yl)piperidine-4-carbonyl)piperidin-4-yl)methyl)piperidin-4-yl)-1H-pyrazol-4-yl)nicotinamide]
- CC50: 13 nM

Structure (SMILES): CC1(C)C(NC(=O)c2ccc(-n3cc(CCOCCOCCNC(=O)C4CN(c5ccc6nnn(C7CCC(=O)NC7=O)c(=O)c6c5)C4)nn3)cc2)C(C)(C)C1Oc1ccc(C#N)c(Cl)c1 (stereo not drawn) [Example 157, N-(2-(2-(2-(1-(4-(((1r,3r)-3-(3-chloro-4-cyanophenoxy)-2,2,4,4-tetramethylcyclobutyl)carbamoyl)phenyl)-1H-1,2,3-triazol-4-yl)ethoxy)ethoxy)ethyl)-1-(3-(2,6-dioxopiperidin-3-yl)-4-oxo-3,4-dihydrobenzo[d][1,2,3]triazin-6-yl)azetidine-3-carboxamide]
- CC50: 32.1 nM

Structure (SMILES): CC1(C)C(NC(=O)c2ccc(CCN3CCN(CC4CCN(C(=O)C5CCN(c6ccc7nnn(C8CCC(=O)NC8=O)c(=O)c7c6)CC5)CC4)CC3)cc2)C(C)(C)C1Oc1ccc(C#N)c(Cl)c1 (stereo not drawn) [Example 108, N-((1r,3r)-3-(3-chloro-4-cyanophenoxy)-2,2,4,4-tetramethylcyclobutyl)-4-(2-(4-((1-(1-(3-(2,6-dioxopiperidin-3-yl)-4-oxo-3,4-dihydrobenzo[d][1,2,3]triazin-6-yl)piperidine-4-carbonyl)piperidin-4-yl)methyl)piperazin-1-yl)ethyl)benzamide]
- CC50: 18.8 nM

Structure (SMILES): CC1(C)[C@H](NC(=O)c2ccc(N3CCN(CCCc4cn(-c5ccc6nnn(C7CCC(=O)NC7=O)c(=O)c6c5)nn4)CC3)cc2)C(C)(C)[C@H]1Oc1ccc(C#N)c(Cl)c1 (stereo partly drawn) [Example 134, N-((1r,3r)-3-(3-chloro-4-cyanophenoxy)-2,2,4,4-tetramethylcyclobutyl)-4-(4-(3-(1-(3-(2,6-dioxopiperidin-3-yl)-4-oxo-3,4-dihydrobenzo[d][1,2,3]triazin-6-yl)-1H-1,2,3-triazol-4-yl)propyl)piperazin-1-yl)benzamide]
- CC50: 64.5 nM
